Experimental data published in patent publication US20260209217A1, “CRYSTALLINE FORMS OF (S)-5-((3-(4-(4-FLUOROPHENYL)-1H-IMIDAZOL-2-YL)CHROMAN-6-YL)OXY)-3,4-DIHYDRO-1,8-NAPHTHYRIDIN-2(1H)-ONE” (Jazz Pharmaceuticals Ireland Limited, priority 2022, published 2026).
Entries after “also recorded” stand apart in the source; their conditions may differ.

How the values were obtained:
Assay type in all cases: physicochemical
[1] = Solubility / in vitro dissolution in biorelevant media
Protocol: In vitro dissolution profiles were analyzed for Form A and Form F. In vitro drug dissolution and release testing can provide insight into a drug's in vivo performance such as bioavailability.
Because Forms A and F were selected for further pharmaceutical development, dissolution tests were performed on these forms. The tests were performed at different pH and in biorelevant media: hydrochloric acid (HCl), fasted state simulated gastric fluid (FaSSGF), fasted state simulated intestinal fluid (FaSSIF), and fed state simulated intestinal fluid (FeSSIF) (75 rpm, 900 mL). Three 10 mg and 50 mg capsules were analyzed as shown below in Table 18. The capsules include those including only Form A, 90% Form A spiked with 10% of Form F, and Form F. The results are shown in FIGS. 14A-14C (10 mg capsules) and FIGS. 15A-15C (50 mg capsules).

[2] = Dynamic vapor sorption (DVS) isotherm analysis
Protocol: Approximately 10 mg of material was analyzed using an automated dynamic vapor sorption analyzer (Intrinsic/Advantage) at 25° C. Method 1 for anhydrate undergo humidity cycle of 40-0-95-0-40% RH with stage step of 10% RH during which mass change was recorded. Method 2 for hydrate undergo humidity cycle of 40-95-0-95-40% RH with stage step of 10% RH during which mass change we recorded. Equilibrium set up was 0.002 dm/dt (%/min). Minimum dm/dt stability during in 60 min and maximum dm/dt stability duration is 360 min.

[3] = Stability of crystalline forms as evidenced by DSC and TGA thermograms; settings: relative to the other crystalline forms
Protocol: Approximately 1-2 mg of material was weighed into an aluminum DSC pan with a pin hold. The sample pan then placed on Differential Scanning Calorimetry (TA Discovery 2500) with protected nitrogen flow rate of 50 mL/min. The sample was heated at rate of 10° C./min from 30° C. to 250° C. during which heat flow was recorded.
Approximately 2 mg of material was weighed into an open aluminum pan and loaded into a simultaneous thermogravimetric/differential thermal analyzer (TG Discovery 5500) and held at room temperature. Nitrogen flow rate for balance was 10 mL/min and nitrogen flow rate for sample was 25 mL/min. The sample was then heated at a rate of 10° C./min from 30° C. to 300° C. during which time the change in sample weight was recorded.

[4] = DVS Cycle 1, target 40.0 % P/Po, 24.8° C.
[5] = DVS Cycle 1, target 50.0 % P/Po, 24.8° C.
[6] = DVS Cycle 1, target 60.0 % P/Po, 24.8° C.
[7] = DVS Cycle 1, target 70.0 % P/Po, 24.8° C.
[8] = DVS Cycle 1, target 80.0 % P/Po, 24.8° C.
[9] = DVS Cycle 1, target 90.0 % P/Po, 24.8° C.
[10] = DVS Cycle 1, target 95.0 % P/Po, 24.8° C.
[11] = DVS Cycle 2, target 40.0 % P/Po, 24.8° C.
[12] = DVS Cycle 2, target 50.0 % P/Po, 24.8° C.
[13] = DVS Cycle 2, target 60.0 % P/Po, 24.8° C.
[14] = DVS Cycle 2, target 70.0 % P/Po, 24.8° C.
[15] = DVS Cycle 2, target 80.0 % P/Po, 24.8° C.
[16] = DVS Cycle 2, target 90.0 % P/Po, 24.8° C.
[17] = DVS Cycle 2, target 95.0 % P/Po, 24.8° C.
[18] = DVS Cycle 1, target 0.0 % P/Po, 24.9° C.
[19] = DVS Cycle 1, target 10.0 % P/Po, 24.9° C.
[20] = DVS Cycle 1, target 20.0 % P/Po, 24.9° C.
[21] = DVS Cycle 1, target 30.0 % P/Po, 24.9° C.
[22] = DVS Cycle 1, target 40.0 % P/Po, 24.9° C.
[23] = DVS Cycle 2, target 0.0 % P/Po, 24.9° C.
[24] = DVS Cycle 2, target 10.0 % P/Po, 24.9° C.
[25] = DVS Cycle 2, target 20.0 % P/Po, 24.9° C.
[26] = DVS Cycle 2, target 30.0 % P/Po, 24.9° C.
[27] = DVS Cycle 2, target 40.0 % P/Po, 24.9° C.

SMILES: O=C1CCc2c(Oc3ccc4c(c3)C[C@@H](c3nc(-c5ccc(F)cc5)c[nH]3)CO4)ccnc2N1 [Compound I, (S)-5-((3-(4-(4-fluorophenyl)-1H-imidazol-2-yl)chroman-6-yl)oxy)-3,4-dihydro-1,8-naphthyridin-2(1H)-one]
- solubility [1]: poorly soluble

SMILES: O=C1CCc2c(Oc3ccc4c(c3)C[C@@H](c3nc(-c5ccc(F)cc5)c[nH]3)CO4)ccnc2N1 [Form A, (S)-5-((3-(4-(4-fluorophenyl)-1H-imidazol-2-yl)chroman-6-yl)oxy)-3,4-dihydro-1,8-naphthyridin-2(1H)-one]
- Change In Mass (%) - ref, Desorption ([2]; DVS Cycle 1, target 0.0 % P/Po, 24.8° C.): 0.002%
- Change In Mass (%) - ref, Desorption ([2]; DVS Cycle 1, target 10.0 % P/Po, 24.8° C.): 0.350%
- Change In Mass (%) - ref, Desorption ([2]; DVS Cycle 1, target 20.0 % P/Po, 24.8° C.): 0.941%
- Change In Mass (%) - ref, Desorption ([2]; DVS Cycle 1, target 30.0 % P/Po, 24.8° C.): 3.649%
- Change In Mass (%) - ref, Desorption [2, 4]: 4.700%
- Change In Mass (%) - ref, Hysteresis [2, 4]: 0.077%
- Change In Mass (%) - ref, Sorption [2, 4]: 4.623%
- Change In Mass (%) - ref, Desorption [2, 5]: 5.395%
- Change In Mass (%) - ref, Hysteresis [2, 5]: 0.283%
- Change In Mass (%) - ref, Sorption [2, 5]: 5.112%
- Change In Mass (%) - ref, Desorption [2, 6]: 5.814%
- Change In Mass (%) - ref, Hysteresis [2, 6]: 0.339%
- Change In Mass (%) - ref, Sorption [2, 6]: 5.475%
- Change In Mass (%) - ref, Desorption [2, 7]: 6.213%
- Change In Mass (%) - ref, Hysteresis [2, 7]: 0.368%
- Change In Mass (%) - ref, Sorption [2, 7]: 5.845%
- Change In Mass (%) - ref, Desorption [2, 8]: 6.535%
- Change In Mass (%) - ref, Hysteresis [2, 8]: 0.341%
- Change In Mass (%) - ref, Sorption [2, 8]: 6.194%
- Change In Mass (%) - ref, Desorption [2, 9]: 6.824%
- Change In Mass (%) - ref, Hysteresis [2, 9]: 0.230%
- Change In Mass (%) - ref, Sorption [2, 9]: 6.594%
- Change In Mass (%) - ref, Desorption [2, 10]: 6.838%
- Change In Mass (%) - ref, Sorption [2, 10]: 6.838%
- Change In Mass (%) - ref, Sorption ([2]; DVS Cycle 2, target 0.0 % P/Po, 24.8° C.): 0.002%
- Change In Mass (%) - ref, Sorption ([2]; DVS Cycle 2, target 10.0 % P/Po, 24.8° C.): 0.312%
- Change In Mass (%) - ref, Sorption ([2]; DVS Cycle 2, target 20.0 % P/Po, 24.8° C.): 0.853%
- Change In Mass (%) - ref, Sorption ([2]; DVS Cycle 2, target 30.0 % P/Po, 24.8° C.): 3.253%
- Change In Mass (%) - ref, Desorption [2, 11]: 4.601%
- Change In Mass (%) - ref, Hysteresis [2, 11]: 0.375%
- Change In Mass (%) - ref, Sorption [2, 11]: 4.225%
- Change In Mass (%) - ref, Desorption [2, 12]: 5.295%
- Change In Mass (%) - ref, Hysteresis [2, 12]: 0.495%
- Change In Mass (%) - ref, Sorption [2, 12]: 4.800%
- Change In Mass (%) - ref, Desorption [2, 13]: 5.715%
- Change In Mass (%) - ref, Hysteresis [2, 13]: 0.466%
- Change In Mass (%) - ref, Sorption [2, 13]: 5.248%
- Change In Mass (%) - ref, Desorption [2, 14]: 6.129%
- Change In Mass (%) - ref, Hysteresis [2, 14]: 0.423%
- Change In Mass (%) - ref, Sorption [2, 14]: 5.706%
- Change In Mass (%) - ref, Desorption [2, 15]: 6.446%
- Change In Mass (%) - ref, Hysteresis [2, 15]: 0.324%
- Change In Mass (%) - ref, Sorption [2, 15]: 6.122%
- Change In Mass (%) - ref, Desorption [2, 16]: 6.737%
- Change In Mass (%) - ref, Hysteresis [2, 16]: 0.201%
- Change In Mass (%) - ref, Sorption [2, 16]: 6.536%
- Change In Mass (%) - ref, Desorption [2, 17]: 6.745%
- Change In Mass (%) - ref, Sorption [2, 17]: 6.745%
- stability of the crystalline form [3]: high degree of crystallinity and stability; also recorded: increased stability

SMILES: O=C1CCc2c(Oc3ccc4c(c3)C[C@@H](c3nc(-c5ccc(F)cc5)c[nH]3)CO4)ccnc2N1 [Form F, (S)-5-((3-(4-(4-fluorophenyl)-1H-imidazol-2-yl)chroman-6-yl)oxy)-3,4-dihydro-1,8-naphthyridin-2(1H)-one]
- Change In Mass (%) - ref, Desorption [2, 18]: 0.006%
- Change In Mass (%) - ref, Sorption [2, 18]: 0.006%
- Change In Mass (%) - ref, Desorption [2, 19]: 0.301%
- Change In Mass (%) - ref, Hysteresis [2, 19]: 0.128%
- Change In Mass (%) - ref, Sorption [2, 19]: 0.173%
- Change In Mass (%) - ref, Desorption [2, 20]: 0.458%
- Change In Mass (%) - ref, Hysteresis [2, 20]: 0.134%
- Change In Mass (%) - ref, Sorption [2, 20]: 0.324%
- Change In Mass (%) - ref, Desorption [2, 21]: 0.566%
- Change In Mass (%) - ref, Hysteresis [2, 21]: 0.111%
- Change In Mass (%) - ref, Sorption [2, 21]: 0.455%
- Change In Mass (%) - ref, Desorption [2, 22]: 0.649%
- Change In Mass (%) - ref, Hysteresis [2, 22]: 0.075%
- Change In Mass (%) - ref, Sorption [2, 22]: 0.574%
- Change In Mass (%) - ref, Sorption ([2]; DVS Cycle 1, target 50.0 % P/Po, 24.9° C.): 0.690%
- Change In Mass (%) - ref, Sorption ([2]; DVS Cycle 1, target 60.0 % P/Po, 24.9° C.): 0.813%
- Change In Mass (%) - ref, Sorption ([2]; DVS Cycle 1, target 70.0 % P/Po, 24.9° C.): 0.964%
- Change In Mass (%) - ref, Sorption ([2]; DVS Cycle 1, target 80.0 % P/Po, 24.9° C.): 1.160%
- Change In Mass (%) - ref, Sorption ([2]; DVS Cycle 1, target 90.0 % P/Po, 24.9° C.): 1.601%
- Change In Mass (%) - ref, Sorption ([2]; DVS Cycle 1, target 95.0 % P/Po, 24.9° C.): 1.911%
- Change In Mass (%) - ref, Desorption [2, 23]: 0.156%
- Change In Mass (%) - ref, Sorption [2, 23]: 0.156%
- Change In Mass (%) - ref, Desorption [2, 24]: 0.718%
- Change In Mass (%) - ref, Hysteresis [2, 24]: 0.355%
- Change In Mass (%) - ref, Sorption [2, 24]: 0.363%
- Change In Mass (%) - ref, Desorption [2, 25]: 1.060%
- Change In Mass (%) - ref, Hysteresis [2, 25]: 0.495%
- Change In Mass (%) - ref, Sorption [2, 25]: 0.565%
- Change In Mass (%) - ref, Desorption [2, 26]: 1.291%
- Change In Mass (%) - ref, Hysteresis [2, 26]: 0.539%
- Change In Mass (%) - ref, Sorption [2, 26]: 0.752%
- Change In Mass (%) - ref, Desorption [2, 27]: 1.459%
- Change In Mass (%) - ref, Hysteresis [2, 27]: 0.532%
- Change In Mass (%) - ref, Sorption [2, 27]: 0.927%
- Change In Mass (%) - ref, Desorption ([2]; DVS Cycle 2, target 50.0 % P/Po, 24.9° C.): 1.595%
- Change In Mass (%) - ref, Desorption ([2]; DVS Cycle 2, target 60.0 % P/Po, 24.9° C.): 1.711%
- Change In Mass (%) - ref, Desorption ([2]; DVS Cycle 2, target 70.0 % P/Po, 24.9° C.): 1.813%
- Change In Mass (%) - ref, Desorption ([2]; DVS Cycle 2, target 80.0 % P/Po, 24.9° C.): 1.901%
- Change In Mass (%) - ref, Desorption ([2]; DVS Cycle 2, target 90.0 % P/Po, 24.9° C.): 1.964%
- Change In Mass (%) - ref, Desorption ([2]; DVS Cycle 2, target 95.0 % P/Po, 24.9° C.): 1.911%
- stability of the crystalline form [3]: high degree of crystallinity and stability; also recorded: increased stability
